Measured values published in patent US8487091B2, “Substituted cyclopentanes having prostaglandin activity” (Allergan, Inc., priority 2008, dated 2013).
Where “and” joins values, the source holds several entries; their conditions need not be identical. Identical values can stand only once.

Assays:
EP2 [1] = target: T1, EP2 (Homo sapiens, UniProt P43116); assay: EP2 cAMP functional assay; format: cell-based
From the text: (§1) United States Patent Application Publication No. 20070129552, describes the methods used to obtain the in vitro data in Table 1 below. The part of that reference which describes the method is incorporated by reference herein.

EP2 [2] = target: T1, EP2; assay: EP2 binding assay
From the text: as §1

T1 sequence (P43116 whole entry): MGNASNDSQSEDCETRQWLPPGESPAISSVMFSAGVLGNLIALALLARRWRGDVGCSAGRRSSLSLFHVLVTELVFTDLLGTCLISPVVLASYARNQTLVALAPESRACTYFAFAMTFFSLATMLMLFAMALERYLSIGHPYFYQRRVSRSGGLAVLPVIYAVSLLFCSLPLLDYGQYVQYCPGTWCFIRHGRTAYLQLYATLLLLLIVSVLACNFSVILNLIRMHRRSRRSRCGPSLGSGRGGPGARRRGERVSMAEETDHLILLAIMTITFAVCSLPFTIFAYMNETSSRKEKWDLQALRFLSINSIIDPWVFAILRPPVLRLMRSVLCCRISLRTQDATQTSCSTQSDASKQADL

| SMILES | EC50 (EP2 [1]) | Ki (EP2 [2]) |
| --- | --- | --- |
| CCC1(C(O)CCCC2C(C#N)CCC2CCCc2ccc(C(=O)O)s2)CCC1 (stereo not shown) [Compound 22] | 0.018 µM | 0.123 µM |
| CCC1(C(O)CCC[C@@H]2[C@@H](CCCc3ccc(C(=O)O)s3)CC[C@H]2Cl)CCC1 (stereo partly shown) [Compound 67] | 0.011 µM | 0.04 µM |
| CCC1(C(O)C/C=C/C2=CCC[C@@H]2CCCc2ccc(C(=O)O)s2)CCC1 (stereo partly shown) [Compound 16] | 0.032 µM | 0.017 µM |
| CCC1(C(O)CCCC2C(C#N)CCC2CCCc2ccc(C(=O)O)s2)CCC1 (stereo not shown) [Compound 43] | 0.054 µM | 0.516 µM |
| CCC1(C(O)CCC[C@@H]2[C@@H](CCCc3ccc(C(=O)O)s3)CC[C@@H]2Cl)CCC1 (stereo partly shown) [Compound 51] | 0.114 µM | 0.377 µM |
| CCC1(C(O)CCC[C@H]2C(=O)CC[C@@H]2CCCc2ccc(C(=O)O)s2)CCC1 (stereo partly shown) [Compound 13] | 0.0063 µM | 0.137 µM |

The remaining lines, values ahead:

| EC50 (EP2 [1]) | Ki (EP2 [2]) | SMILES |
| --- | --- | --- |
| 0.117 µM | 1.17 µM | CCC1(C(O)C/C=C/[C@@H]2[C@@H](CCCc3ccc(C(=O)O)s3)CC[C@@H]2Cl)CCC1 (stereo partly shown) [Compound 50] |
| 0.023 µM | 0.036 µM | CCC1(C(O)C/C=C/[C@@H]2[C@@H](CCCc3ccc(C(=O)O)s3)CC[C@@H]2F)CCC1 (stereo partly shown) [Compound 35] |
| 0.017 µM and 0.007 µM | 0.031 µM and 0.016 µM | CCC1(C(O)C/C=C/[C@@H]2[C@@H](CCCc3ccc(C(=O)O)s3)CC[C@H]2Cl)CCC1 (stereo partly shown) [Compound 10] |
| 0.0085 µM | 0.015 µM and 0.047 µM | CCC1(C(O)CCC[C@@H]2[C@@H](CCCc3ccc(C(=O)O)s3)CC[C@H]2F)CCC1 (stereo partly shown) [Compound 27] |
| 0.0057 µM | 0.016 µM and 0.067 µM | CCC1(C(O)C/C=C/[C@@H]2[C@@H](CCCc3ccc(C(=O)O)s3)CC[C@H]2F)CCC1 (stereo partly shown) [Compound 25] |
| 0.129 µM | 1.39 µM | CCC1(C(O)C/C=C/[C@@H]2[C@@H](CCCc3ccc(C(=O)O)s3)CC[C@@H]2C#N)CCC1 (stereo partly shown) [Compound 41] |
| 0.0054 µM | 0.086 µM | CCC1(C(O)C/C=C/[C@H]2C(=O)CC[C@@H]2CCCc2ccc(C(=O)O)s2)CCC1 (stereo partly shown) [Compound 12] |
| 0.019 µM | 0.025 µM | CCC1(C(O)CCC[C@@H]2[C@@H](CCCc3ccc(C(=O)O)s3)CC[C@@H]2F)CCC1 (stereo partly shown) [Compound 37] |
